Here are results for 19 compounds from PubChem BioAssay (NCI).

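Cultured in 96-well plates, cells were exposed to test compound for 48 hours across five concentrations. The concentration for full growth arrest is given as TGI.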

Among the test systems are RPMI-8226 leukemia; HCC-2998 colon; NCI-H460 lung; UACC-62 melanoma; LOX IMVI melanoma; PC-3 prostate; TK-10 renal.
What all share (experiment): NCI tumour cell line growth inhibition, 48 h

For the compound `COc1cc2nc(-c3cccs3)nc(N3C(c4ccc(O)cc4)=NNC(=O)c4ccccc43)c2cc1OC`, the TGI in the assay on RPMI-8226 leukemia worked out at 47.9 µM; with HCC-2998 colon, 38.5 µM; in the assay on NCI-H460 lung, 82.1 µM; in the assay on UACC-62 melanoma, 43 µM; in the assay with LOX IMVI melanoma, 54.6 µM; in the assay with PC-3 prostate it was 67.9 µM. The same compound came in with a TGI in the assay on TK-10 renal of 70.5 µM.
Regarding `COc1ccc(N=Nc2ccc3oc(=O)c(C(=O)Nc4ccccc4)cc3c2)cc1`, the TGI in the assay with RPMI-8226 leukemia, in the assay on HCC-2998 colon, with NCI-H460 lung, with UACC-62 melanoma, in the assay with LOX IMVI melanoma and in the assay on PC-3 prostate was greater than 10 µM throughout. The TGI in the assay with TK-10 renal is greater than 10 µM.
Regarding `O=C(c1ccco1)n1c2ccc(Br)cc2c2nc3ccccc3nc21`, the TGI was 54.6 µM in the assay with RPMI-8226 leukemia; greater than 100 µM in the assay on HCC-2998 colon; greater than 100 µM in the assay with NCI-H460 lung; greater than 100 µM in the assay with UACC-62 melanoma; greater than 100 µM in the assay on LOX IMVI melanoma; greater than 100 µM in the assay on PC-3 prostate. Further, in the assay with TK-10 renal, the TGI was greater than 100 µM.
Consider `CC1(C)C2CCC(N)(C2)C1N` (stereo not drawn), for which the TGI in the assay on RPMI-8226 leukemia, in the assay with HCC-2998 colon, in the assay on NCI-H460 lung, in the assay on UACC-62 melanoma, in the assay with LOX IMVI melanoma and in the assay with PC-3 prostate was greater than 100 µM each time. The TGI with TK-10 renal is greater than 100 µM.
Consider `COc1ccc(-c2cc(-c3ccc(Nc4ccnc5cc(Cl)ccc45)cc3)nc(N)c2C#N)cc1`, for which the TGI in the assay with RPMI-8226 leukemia, in the assay with HCC-2998 colon, with NCI-H460 lung, in the assay with UACC-62 melanoma, with LOX IMVI melanoma and in the assay with PC-3 prostate was greater than 100 µM throughout. The same compound displayed a TGI in the assay on TK-10 renal greater than 100 µM.
Take `N#CCC(=O)c1cc(OCc2cc(OCc3ccc(Br)cc3)cc(OCc3ccc(Br)cc3)c2)cc(OCc2cc(OCc3ccc(Br)cc3)cc(OCc3ccc(Br)cc3)c2)c1`: the TGI in the assay on RPMI-8226 leukemia, with HCC-2998 colon, in the assay with NCI-H460 lung, with UACC-62 melanoma, in the assay on PC-3 prostate and in the assay with TK-10 renal was greater than 100 µM throughout.
Turning to `COC(=O)C12OC(C)(C(CC(=O)OC(C)(C)C)C1=O)C1C(=O)N(c3ccccc3)C(=O)C12` (stereo not drawn), the TGI with RPMI-8226 leukemia, with HCC-2998 colon, in the assay on NCI-H460 lung, in the assay on UACC-62 melanoma, in the assay on LOX IMVI melanoma and in the assay with PC-3 prostate was greater than 100 µM each time. The compound further registered a TGI in the assay on TK-10 renal greater than 100 µM.
As to `CN=CN(C)c1c2ccccc2nc2ccccc12`, the TGI in the assay with RPMI-8226 leukemia, in the assay on HCC-2998 colon, in the assay on NCI-H460 lung, with UACC-62 melanoma, in the assay with LOX IMVI melanoma and in the assay on PC-3 prostate was greater than 100 µM in each case. In the assay on TK-10 renal, this compound returned a TGI greater than 100 µM.
Consider `CSc1nc(-c2ccc(C)cc2)c(C#N)c(=O)[nH]1`, for which the TGI with RPMI-8226 leukemia, with HCC-2998 colon, in the assay with NCI-H460 lung, with UACC-62 melanoma, in the assay with PC-3 prostate and with TK-10 renal was greater than 100 µM each time.
Consider `CCCCNc1c(CN)cnc2cc(Cl)ccc12`, for which the TGI in the assay on RPMI-8226 leukemia amounted to 37 µM; with HCC-2998 colon it was 9.63 µM; in the assay with NCI-H460 lung, 25.8 µM; in the assay with UACC-62 melanoma, 29 µM; in the assay with LOX IMVI melanoma, 29.9 µM; with PC-3 prostate it was 43.1 µM. The compound also gave a TGI with TK-10 renal of 30.2 µM.
`CC(=O)CCC(=O)C(=[N+]=[N-])S(=O)(=O)c1ccccc1`: the TGI in the assay on RPMI-8226 leukemia, in the assay on HCC-2998 colon, with NCI-H460 lung, with UACC-62 melanoma, in the assay with LOX IMVI melanoma and with PC-3 prostate was greater than 100 µM each time. Also, the TGI in the assay on TK-10 renal is greater than 100 µM.
Take `CC1=C(O)C(=O)C[C@]2(C)[C@H]3CC=C4[C@@H]5CC(C)(C)CC[C@@H]5C(=O)[C@H](O)[C@@]4(C)[C@]3(C)CC[C@@H]12`: the TGI in the assay with RPMI-8226 leukemia, in the assay on HCC-2998 colon, in the assay on NCI-H460 lung, with UACC-62 melanoma, in the assay with PC-3 prostate and in the assay on TK-10 renal was greater than 50 µM each time.
Turning to `CC(=O)O[C@@H]1[C@H]2[C@@H](OC(=O)c3ccccc3)[C@@H](C)C[C@]2(O)[C@H](OC(C)=O)[C@@]2(C)[C@@H]3CC(C)(C)C(=O)[C@]3(OC(C)=O)C[C@@]12C`, the TGI with HCC-2998 colon, in the assay with NCI-H460 lung, in the assay with UACC-62 melanoma, with LOX IMVI melanoma, in the assay on PC-3 prostate and in the assay with TK-10 renal was greater than 25 µM each time.
`CC(C)C1OC2(C)OC(=N)C1(C#N)C(C#N)(C#N)C2C` (stereo not drawn): the TGI with HCC-2998 colon was 30.7 µM; in the assay with NCI-H460 lung, 33.8 µM; in the assay with UACC-62 melanoma, 80.5 µM; in the assay on LOX IMVI melanoma, 41.5 µM; with PC-3 prostate it was greater than 100 µM; with TK-10 renal, greater than 100 µM.
As for `CC(O)(/C=C/c1ccccc1)P(=O)(O)c1ccccc1` (stereo not drawn), the TGI in the assay with HCC-2998 colon, with NCI-H460 lung, in the assay on UACC-62 melanoma, in the assay with LOX IMVI melanoma, in the assay on PC-3 prostate and in the assay with TK-10 renal was greater than 100 µM in each case.
For `c1ccc(-c2cs[s+]c2)cc1`, the TGI in the assay on HCC-2998 colon, with NCI-H460 lung, in the assay on UACC-62 melanoma, with LOX IMVI melanoma, in the assay with PC-3 prostate and in the assay with TK-10 renal was greater than 100 µM in each case.
As for `CCOC(=O)c1cc(C2CCN(CC(C)CC)C2=S)c(-c2cc(C)no2)[nH]1` (stereo not drawn), the TGI with RPMI-8226 leukemia, with HCC-2998 colon, with NCI-H460 lung, with UACC-62 melanoma, with LOX IMVI melanoma and in the assay on PC-3 prostate was greater than 100 µM in each case.
In the case of `NC1=NNC2(C(=O)N1)c1ccccc1-c1ccccc12`, the TGI in the assay with RPMI-8226 leukemia, in the assay on HCC-2998 colon, in the assay on NCI-H460 lung, in the assay on LOX IMVI melanoma, with PC-3 prostate and in the assay on TK-10 renal was greater than 10 µM each time.
Regarding `C=CCOc1ccc(/C(N=Nc2ccccc2)=N/NC(=O)c2ccccc2)cc1OC`, the TGI in the assay on HCC-2998 colon, with NCI-H460 lung, with UACC-62 melanoma, in the assay with LOX IMVI melanoma, with PC-3 prostate and in the assay on TK-10 renal was greater than 100 µM each time.
